Test systems include SN12C; 786-0; Hs-578T; RPMI-8226; MCF7; MDA-N; NCI-H460; ACHN; HCC 2998; KM12; EKVX; UO-31; CAKI-1; OVCAR-5; A549; NCI-H23; MOLT-4; T47D; HL-60; CCRF-CEM.
Experiment in all cases: NCI anticancer screen, dose series, 48 h

SMILES strings stand for the structures.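 Step 1: Grow cells in 96-well plates. Step 2: Expose to compound for 48 hours at 5 concentrations. Step 3: Interpolate endpoints linearly; if unreached, use highest concentration. GI50 = concentration required for 50% inhibition of growth.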 Activity calls are given as the source filed them. Cut-off read from the data, not from the text of the source: active = GI50 up to about 1.1 µM and inactive = higher.

Experimental findings from ChEMBL document CHEMBL1201862, “PubChem BioAssay data set” (2004) are described below.

As for `N#CC(CC(=O)O)=C(c1ccccc1)c1ccccc1`, the GI50 in the test on SN12C was > 100 µM (inactive); in the test on 786-0, > 100 µM (inactive); in the test with Hs-578T, 70.1 µM (inactive); in the test with RPMI-8226 it was > 100 µM (inactive); with MCF7 it was > 100 µM (inactive); in the test with MDA-N, > 100 µM (inactive). Further, the GI50 in the test on NCI-H460, in the test on ACHN, in the test on HCC 2998, with KM12, in the test with EKVX and in the test on UO-31 was > 100 µM (inactive) throughout. Besides, the GI50 with CAKI-1, in the test with OVCAR-5, in the test on A549 and in the test with NCI-H23 was > 100 µM (inactive) each time.
Turning to `CN(C)CCN(C)P12(Oc3ccccc3O1)Oc1c(Cl)c(Cl)c(Cl)c(Cl)c1O2`, the GI50 was 34 µM (inactive) in the test with MOLT-4; 42.6 µM (inactive) in the test with SN12C; 54.6 µM (inactive) with 786-0; 29.1 µM (inactive) in the test with RPMI-8226; 33.7 µM (inactive) in the test with MCF7; 48.4 µM (inactive) in the test on MDA-N. Moreover, the GI50 was 37.2 µM (inactive) with NCI-H460; 39.8 µM (inactive) with ACHN; > 100 µM (inactive) with HCC 2998; 99.8 µM (inactive) in the test with EKVX; 39.1 µM (inactive) with UO-31; 59.8 µM (inactive) with T47D. The GI50 in the test on HL-60 was 18.8 µM (inactive); in the test with OVCAR-5, 46.1 µM (inactive); in the test on CCRF-CEM, 29 µM (inactive); in the test with A549, 46.9 µM (inactive); with NCI-H23, 35.8 µM (inactive).
Regarding `CCOC(OCC)[C@@H]1C[C@@H]2N(O[C@H](OC3CCCC3(c3ccccc3)c3ccccc3)[C@H](OC(C)=O)[C@@]2(CC)Cc2ccc(OC)c(OC)c2)O1` (stereo partly specified), the GI50 with MOLT-4, in the test with SN12C, with 786-0, in the test on MCF7, in the test on MDA-N and in the test on NCI-H460 was > 100 µM (inactive) throughout. In addition, the GI50 in the test with ACHN, with HCC 2998, in the test with KM12, with EKVX, in the test with UO-31 and with CAKI-1 was > 100 µM (inactive) each time. The GI50 in the test with T47D, in the test on OVCAR-5, in the test on CCRF-CEM, with A549 and in the test on NCI-H23 was > 100 µM (inactive) each time.
As to `CCOC(=O)CSc1nc(-c2ccc(OC)cc2)c(C#N)c(=O)[nH]1`, the GI50 in the test on MOLT-4, in the test with SN12C, in the test on 786-0, with Hs-578T, in the test on RPMI-8226 and in the test on MCF7 was > 100 µM (inactive) throughout. The GI50 in the test with NCI-H460 is > 100 µM (inactive); in the test on ACHN, > 100 µM (inactive); in the test with HCC 2998 it was > 100 µM (inactive); with KM12 it was > 100 µM (inactive); with EKVX it was > 100 µM (inactive); with UO-31, 51.9 µM (inactive). For the same compound, the GI50 in the test on CAKI-1 was > 100 µM (inactive); in the test with T47D, > 100 µM (inactive); in the test on HL-60 it was 0.0495 µM (active); in the test on OVCAR-5, > 100 µM (inactive); in the test with CCRF-CEM it was > 100 µM (inactive); with A549, > 100 µM (inactive). Moreover, the GI50 in the test with NCI-H23 is > 100 µM (inactive).
Regarding `CCOC(=O)CCC(NC(=O)c1ccc(NCc2ccc3nc(OC)c(OC)nc3c2)c2ccccc12)C(=O)OCC` (stereo unspecified), the GI50 with MOLT-4 was > 100 µM (inactive); in the test with SN12C it was > 100 µM (inactive); in the test on 786-0 it was 26.2 µM (inactive); with MCF7 it was 84.9 µM (inactive); in the test on MDA-N, > 100 µM (inactive); with NCI-H460 it was > 100 µM (inactive). Moreover, the GI50 in the test on ACHN is 55.8 µM (inactive); in the test with HCC 2998, > 100 µM (inactive); in the test with KM12, > 100 µM (inactive); in the test with EKVX, > 100 µM (inactive); with UO-31, > 100 µM (inactive); with CAKI-1, > 100 µM (inactive). Further, the GI50 in the test on T47D is > 100 µM (inactive); with HL-60 it was 0.0836 µM (active); with OVCAR-5, > 100 µM (inactive); in the test on A549, > 100 µM (inactive); in the test on NCI-H23, > 100 µM (inactive).
As for `Cc1cc(C)nc(NC(=S)Nc2ccc([N+](=O)[O-])cc2)c1`, the GI50 in the test on MOLT-4, with 786-0, in the test on Hs-578T, in the test with RPMI-8226, with MCF7 and in the test on NCI-H460 was > 100 µM (inactive) each time. For the same compound, the GI50 in the test with ACHN, in the test with HCC 2998, in the test with KM12, in the test with EKVX, in the test on UO-31 and in the test with CAKI-1 was > 100 µM (inactive) throughout. Also, the GI50 in the test on T47D, in the test on HL-60, in the test on CCRF-CEM and in the test on NCI-H23 was > 100 µM (inactive) throughout.
`CCCCN(CCCC)CC(O)c1cc(-c2ccc(C(F)(F)F)cc2)nc(-c2ccc(C(F)(F)F)cc2)c1` (stereo unspecified): the GI50 with MOLT-4 is > 100 µM (inactive); in the test with SN12C it was 26.1 µM (inactive); in the test with 786-0, 61.1 µM (inactive); in the test with RPMI-8226, 39.9 µM (inactive); in the test on MCF7, > 10 µM (inactive); with NCI-H460, > 100 µM (inactive). The GI50 in the test with ACHN was > 100 µM (inactive); in the test on HCC 2998, 22.6 µM (inactive); with EKVX, 39.4 µM (inactive); in the test on UO-31 it was 95.7 µM (inactive); in the test with CAKI-1, > 100 µM (inactive); in the test on T47D it was 34.4 µM (inactive). Also, the GI50 was 32 µM (inactive) in the test with HL-60, > 100 µM (inactive) with OVCAR-5, 50.9 µM (inactive) in the test with CCRF-CEM and > 100 µM (inactive) in the test on NCI-H23.
Turning to `c1csc(-c2nn3c(C45CC6CC(CC(C6)C4)C5)nnc3s2)c1`, the GI50 in the test on MOLT-4, in the test with SN12C, with 786-0, with Hs-578T, in the test with RPMI-8226 and in the test on MDA-N was > 100 µM (inactive) each time. Further, the GI50 in the test on NCI-H460 is > 100 µM (inactive); in the test with ACHN, > 100 µM (inactive); with HCC 2998, > 100 µM (inactive); in the test with EKVX it was > 100 µM (inactive); in the test with UO-31, 47.5 µM (inactive); in the test with CAKI-1, > 100 µM (inactive). The GI50 in the test on T47D, in the test with HL-60, in the test with OVCAR-5, in the test with CCRF-CEM, with A549 and in the test on NCI-H23 was > 100 µM (inactive) each time.
Consider `C/C(=N\NS(=O)(=O)c1ccc(C)cc1)C(CN(C)C)C(c1ccccc1)c1c(O)c2ccccc2oc1=O` (stereo unspecified), for which the GI50 was > 100 µM (inactive) with MOLT-4; > 100 µM (inactive) with SN12C; > 100 µM (inactive) in the test with 786-0; > 100 µM (inactive) in the test with Hs-578T; > 95.9 µM (inactive) in the test on RPMI-8226; > 100 µM (inactive) with MCF7. The GI50 with MDA-N was > 100 µM (inactive); in the test with NCI-H460, > 100 µM (inactive); in the test on ACHN, > 100 µM (inactive); in the test on KM12 it was > 100 µM (inactive); with EKVX, > 100 µM (inactive); with UO-31, > 81.7 µM (inactive). Further, the GI50 in the test on CAKI-1, with HL-60, in the test with OVCAR-5, with CCRF-CEM, in the test with A549 and in the test with NCI-H23 was > 100 µM (inactive) in each case.
On to `NC1CC(=O)c2sc(I)cc21` (stereo unspecified), for which the GI50 with MOLT-4 is 71.9 µM (inactive); in the test on SN12C, > 100 µM (inactive); with 786-0, > 100 µM (inactive); with RPMI-8226, 92.5 µM (inactive); in the test on MCF7, > 100 µM (inactive); in the test on MDA-N, > 100 µM (inactive). For the same compound, the GI50 in the test on NCI-H460 was 69.8 µM (inactive); in the test on ACHN, > 100 µM (inactive); in the test with HCC 2998 it was > 100 µM (inactive); with KM12 it was > 100 µM (inactive); in the test with EKVX, > 100 µM (inactive); in the test on UO-31 it was > 100 µM (inactive). Moreover, the GI50 was 40.3 µM (inactive) in the test on CAKI-1; > 100 µM (inactive) in the test on T47D; 18.7 µM (inactive) in the test on HL-60; > 100 µM (inactive) in the test with OVCAR-5; 37.4 µM (inactive) with CCRF-CEM; > 100 µM (inactive) in the test with A549.
As to `COc1ccc2nc3c(c(N)c2c1)C1CCC3C1(C)C` (stereo unspecified), the GI50 is 46.9 µM (inactive) in the test with MOLT-4; 52.1 µM (inactive) with SN12C; 22.5 µM (inactive) in the test with 786-0; > 100 µM (inactive) with Hs-578T; 23.5 µM (inactive) in the test with RPMI-8226; 24 µM (inactive) with MCF7. Also, the GI50 in the test on NCI-H460 was 31.2 µM (inactive); with ACHN, > 100 µM (inactive); with HCC 2998, 17.5 µM (inactive); in the test with KM12, 42.9 µM (inactive); with EKVX, 30.6 µM (inactive); in the test with UO-31 it was 47.4 µM (inactive). In addition, the GI50 in the test on CAKI-1 is 39.3 µM (inactive); in the test on T47D, 22.7 µM (inactive); in the test with HL-60 it was 18.5 µM (inactive); in the test on OVCAR-5, 41 µM (inactive); in the test on CCRF-CEM, 14.1 µM (inactive); with A549, 70.5 µM (inactive). Also, the GI50 in the test with NCI-H23 is 54.8 µM (inactive).
